Key:
Type in all cases: in vivo
[1] = tested on: Red Spider Mite (Tetranychus kanzawai); assay: B.10 Red spider mite test on sprayed cowpea beans; conditions: in comparison with untreated controls, 72 hours after treatment
Method: B.10 Red Spider Mite (Tetranychus kanzawai)
The active compound is dissolved at the desired concentration in a mixture of 1:1 (vol:vol) distilled water:acetone. Add surfactant (Alkamuls® EL 620) at the rate of 0.1% (vol/vol). The test solution is prepared at the day of use. Potted cowpea beans of 7-10 days of age were cleaned with tap water and sprayed with 5 ml of the test solution using air driven hand atomizer. The treated plants were allowed to air dry and afterwards inculated with 20 or more mites by clipping a cassava leaf section with known mite population. Treated plants were placed inside a holding room at about 25-27° C. and about 50-60% relative humidity. Percent mortality was assessed 72 hours after treatment.

[2] = tested on: Orchid Thrips (Dichromothrips corbetti); assay: B.4 Orchid thrips floral-immersion test; conditions: 96 h, in comparison with untreated controls, after 4 days
Method: B.4 Orchid Thrips (Dichromothrips Corbetti)
Dichromothrips corbetti adults used for bioassay are obtained from a colony maintained continuously under laboratory conditions. For testing purposes, the test compound is diluted to a concentration of 300 ppm (wt compound: vol diluent) in a 1:1 mixture of acetone:water (vol:vol), plus 0.01% vol/vol Kinetic® surfactant. Thrips potency of each compound is evaluated by using a floral-immersion technique. Plastic petri dishes are used as test arenas. All petals of individual, intact orchid flowers are dipped into treatment solution and allowed to dry. Treated flowers are placed into individual petri dishes along with 10-15 adult thrips. The petri dishes are then covered with lids. All test arenas are held under continuous light and a temperature of about 28° C. for duration of the assay. After 4 days, the numbers of live thrips are counted on each flower, and along inner walls of each petri dish. The level of thrips mortality is extrapolated from pre-treatment thrips numbers.

[3] = tested on: Silverleaf Whitefly (Bemisia argentifolii); assay: B.5 Silverleaf whitefly test on sprayed cotton plants; conditions: 72 h, in comparison with untreated controls, 3 days after treatment
Method: B.5 Silverleaf Whitefly (Bemisia argentifolii)
The active compounds were formulated in cyclohexanone as a 10,000 ppm solution supplied in 1.3 ml ABgene® tubes. These tubes were inserted into an automated electrostatic sprayer equipped with an atomizing nozzle and they served as stock solutions for which lower dilutions were made in 50% acetone:50% water (v/v). A nonionic surfactant (Kinetic®) was included in the solution at a volume of 0.01% (v/v). Cotton plants at the cotyledon stage (one plant per pot) were sprayed by an automated electrostatic plant sprayer equipped with an atomizing spray nozzle. The plants were dried in the sprayer fume hood and then removed from the sprayer. Each pot was placed into a plastic cup and 10 to 12 whitefly adults (approximately 3-5 days old) were introduced. The insects were collected using an aspirator and 0.6 cm, nontoxic Tygon® tubing (R-3603) connected to a barrier pipette tip. The tip, containing the collected insects, was then gently inserted into the soil containing the treated plant, allowing insects to crawl out of the tip to reach the foliage for feeding. Cups were covered with a reusable screened lid (150-micron mesh polyester screen PeCap from Tetko, Inc.). Test plants were maintained in a growth room at 25° C. and 20-40% relative humidity for 3 days, avoiding direct exposure to fluorescent light (24 hour photoperiod) to prevent trapping of heat inside the cup. Mortality was assessed 3 days after treatment, compared to untreated control plants.

[4] = tested on: Green Soldier Stink Bug (Nezara viridula); assay: B.15 Green soldier stink bug test on sprayed soybean pods; conditions: 120 h, in comparison with untreated controls, after 5 days
Method: B.15 Green Soldier Stink Bug (Nezara viridula)
The active compound is dissolved at the desired concentration in a mixture of 1:1 (vol:vol) distilled water:aceteone. Surfactant (Kinetic HV) is added at a rate of 0.01% (vol/vol). The test solution is prepared at the day of use. Soybean pods were placed in microwavable plastic cups lined with moist filter paper and inoculated with ten 3rd instar N. viridula. Using a hand atomizer, an approximately 2 ml solution is sprayed into each cup. Treated cups were kept at about 28-29° C. and relative humidity of about 50-60%. Percent mortality was recorded after 5 days.

[5] = tested on: Cowpea Aphid (Aphis craccivora); assay: B.1 Cowpea aphid spray test on potted cowpea plants; conditions: in comparison with untreated controls, population reduction assessed after 24, 72 and 120 hours
Method: B.1 Cowpea Aphid (Aphis craccivora)
The active compounds were formulated in 50:50 (v/v) acetone:water. The test solution was prepared at the day of use. Potted cowpea plants colonized with approximately 100-150 aphids of various stages were sprayed after the pest population has been recorded. Population reduction was assessed after 24, 72, and 120 hours.

[6] = tested on: Southern Armyworm (Spodoptera eridania); assay: B.6 Southern armyworm test on sprayed lima bean plants; conditions: 96 h, in comparison with untreated controls, 4 days after treatment
Method: B.6 Southern Armyworm (Spodoptera eridania)
The active compounds were formulated in cyclohexanone as a 10,000 ppm solution supplied in 1.3 ml ABgene® tubes. These tubes were inserted into an automated electrostatic sprayer equipped with an atomizing nozzle and they served as stock solutions for which lower dilutions were made in 50% acetone:50% water (v/v). A nonionic surfactant (Kinetic®) was included in the solution at a volume of 0.01% (v/v). Lima bean plants (variety Sieva) were grown 2 plants to a pot and selected for treatment at the 1st true leaf stage. Test solutions were sprayed onto the foliage by an automated electrostatic plant sprayer equipped with an atomizing spray nozzle. The plants were dried in the sprayer fume hood and then removed from the sprayer. Each pot was placed into perforated plastic bags with a zip closure. Ten to 11 armyworm larvae were placed into the bag and the bags zipped closed. Test plants were maintained in a growth room at 25° C. and 20-40% relative humidity for 4 days, avoiding direct exposure to fluorescent light (24 hour photoperiod) to prevent trapping of heat inside the bags. Mortality and reduced feeding were assessed 4 days after treatment, compared to untreated control plants.

[7] = tested on: Vetch Aphid (Megoura viciae); assay: B.7 Vetch aphid test on broad bean leaf disks; conditions: foliar, 120 h, in comparison with untreated controls, 5 days
Method: B.7 Vetch Aphid (Megoura viciae)
For evaluating control of vetch aphid (Megoura viciae) through contact or systemic means the test unit consisted of 24-well-microtiter plates containing broad bean leaf disks. The compounds were formulated using a solution containing 75% v/v water and 25% v/v DMSO. Different concentrations of formulated compounds were sprayed onto the leaf disks at 2.5 μl, using a custom built micro atomizer, at two replications. After application, the leaf disks were air-dried and 5-8 adult aphids placed on the leaf disks inside the microtiter plate wells. The aphids were then allowed to suck on the treated leaf disks and incubated at about 23±1° C. and about 50±5% relative humidity for 5 days. Aphid mortality and fecundity was then visually assessed.

[8] = tested on: Yellow Fever Mosquito (Aedes aegypti); assay: whole plant or invertebrate; conditions: 48 h, in comparison with untreated controls, larval mortality after 2 days
Method: B.12 Yellow Fever Mosquito (Aedes aegypti)
For evaluating control of yellow fever mosquito (Aedes aegypti) the test unit consisted of 96-well-microtiter plates containing 200 μl of tap water per well and 5-15 freshly hatched A. aegypti larvae. The compounds or mixtures were formulated using a solution containing 75% water and 25% DMSO. Different concentrations of formulated compounds or mixtures were sprayed onto the insect diet at 2.5 μl, using a custom built micro atomizer, at two replications. After application, microtiter plates were incubated at 28±1° C., 80±5% relative humidity for 2 days. Larval mortality was then visually assessed.

[9] = tested on: Boll Weevil (Anthonomus grandis); assay: B.9 Boll weevil microtiter diet test, egg and larval mortality; conditions: 120 h, in comparison with untreated controls, egg and larval mortality after 5 days
Method: B.9 Boll Weevil (Anthonomus grandis)
For evaluating control of boll weevil (Anthonomus grandis) the test unit consisted of 24-well-microtiter plates containing an insect diet and 20-30 A. grandis eggs. The compounds were formulated using a solution containing 75% v/v water and 25% v/v DMSO. Different concentrations of formulated compounds were sprayed onto the insect diet at 20 μl, using a custom built micro atomizer, at two replications. After application, microtiter plates were incubated at about 23±1° C. and about 50±5% relative humidity for 5 days. Egg and larval mortality was then visually assessed.

[10] = tested on: Mediterranean Fruitfly (Ceratitis capitata); assay: B.2 Mediterranean fruitfly microtiter diet test, egg and larval mortality; conditions: 120 h, in comparison with untreated controls, egg and larval mortality after 5 days
Method: B.2 Mediterranean Fruitfly (Ceratitis capitata)
For evaluating control of Mediterranean fruitfly (Ceratitis capitata) the test unit consisted of microtiter plates containing an insect diet and 50-80 C. capitata eggs. The compounds were formulated using a solution containing 75% v/v water and 25% v/v DMSO. Different concentrations of formulated compounds were sprayed onto the insect diet at 5 μl, using a custom built micro atomizer, at two replications. After application, microtiter plates were incubated at about 28±1° C. and about 80±5% relative humidity for 5 days. Egg and larval mortality was then visually assessed.

[11] = tested on: Rice brown plant hopper (Nilaparvata lugens); assay: B.11 Rice brown plant hopper test on sprayed rice seedlings; conditions: in comparison with untreated controls, after 72 hours
Method: B.11 Rice brown plant hopper (Nilaparvata lugens)
Rice seedlings were cleaned and washed 24 hours before spraying. The active compounds were formulated in 50:50 acetone:water (vol:vol) and 0.1% vol/vol surfactant (EL 620) was added. Potted rice seedlings were sprayed with 5 ml test solution, air dried, placed in cages and inoculated with 10 adults. Treated rice plants were kept at about 28-29° C. and relative humidity of about 50-60%. Percent mortality was recorded after 72 hours.

[12] = tested on: Green Peach Aphid (Myzus persicae); assay: B.3 Green peach aphid systemic test, artificial diet under membrane; conditions: 72 h, concentration of the test solution 2500 mg/L, 3 days
Description: B.3 Green Peach Aphid (Myzus persicae)
For evaluating control of green peach aphid (Myzus persicae) through systemic means the test unit consisted of 96-well-microtiter plates containing liquid artificial diet under an artificial membrane. The compounds were formulated using a solution containing 75% v/v water and 25% v/v DMSO. Different concentrations of formulated compounds were pipetted into the aphid diet, using a custom built pipetter, at two replications. After application, 5-8 adult aphids were placed on the artificial membrane inside the microtiter plate wells. The aphids were then allowed to suck on the treated aphid diet and incubated at about 23±1° C. and about 50±5% relative humidity for 3 days. Aphid mortality and fecundity was then visually assessed.

C#Cc1ccc(C(C#N)(C#N)Cc2ccc(C(F)(F)F)cn2)cc1 [II-33]
≥ 75%: mortality at 500 ppm [1] | mortality at 500 ppm [2]

N#CC(C#N)(Cc1ccc(C(F)(F)F)nc1)c1cccc(F)c1 [II-19]
≥ 75%: mortality at 500 ppm [3] | mortality at 500 ppm [4] | mortality at 500 ppm [5] | mortality at 300 ppm [6] | mortality at 2500 ppm [7] | mortality at 2500 ppm [8] | mortality at 500 ppm [2] | mortality at 2500 ppm [9] | mortality at 2500 ppm [10]

N#CC(C#N)(Cc1cnc(C(F)(F)F)nc1)c1cccc(F)c1 [II-21]
≥ 75%: mortality at 500 ppm [3] | mortality at 500 ppm [4] | mortality at 500 ppm [5] | mortality at 300 ppm [11] | mortality at 2500 ppm [7] | mortality at 2500 ppm [8] | mortality at 500 ppm [2] | mortality at 2500 ppm [9]

N#CC(C#N)(Cc1ncc(C(F)(F)F)cn1)c1ccc(F)cc1 [II-17]
≥ 75%: mortality at 500 ppm [3] | mortality at 500 ppm [5] | mortality at 500 ppm [6] | mortality at 2500 ppm [7] | mortality at 2500 ppm [8] | mortality at 500 ppm [2] | mortality at 2500 ppm [9]

CC(c1ccc(C(F)(F)F)cn1)C(C#N)(C#N)c1cc(F)c(F)c(F)c1 (centres unmarked) [II-61]
≥ 75%: mortality at 2500 µg/mL [12] | mortality at 500 ppm [4] | mortality at 500 ppm [5] | mortality at 300 ppm [11] | mortality at 2500 ppm [7] | mortality at 2500 ppm [8] | mortality at 500 ppm [2] | mortality at 2500 ppm [9] | mortality at 2500 ppm [10]

N#CC(C#N)(Cc1ccc(C(F)(F)F)cn1)c1cc(F)c(F)c(F)c1 [II-48]
≥ 75%: mortality at 2500 µg/mL [12] | mortality at 500 ppm [4] | mortality at 300 ppm [11] | mortality at 2500 ppm [7] | mortality at 2500 ppm [8] | mortality at 500 ppm [2] | mortality at 2500 ppm [9] | mortality at 2500 ppm [10]

N#CC(C#N)(Cc1ccc(C(F)(F)F)cn1)c1ccccc1 [II-4]
≥ 75%: mortality at 2500 µg/mL [12] | mortality at 500 ppm [3] | mortality at 500 ppm [4] | mortality at 500 ppm [5] | mortality at 300 ppm [11] | mortality at 2500 ppm [7] | mortality at 2500 ppm [8] | mortality at 500 ppm [2] | mortality at 2500 ppm [9]

N#CC(C#N)(Cc1ccc(C(F)(F)F)cn1)c1cc(F)cc(F)c1 [II-38]
≥ 75%: mortality at 2500 µg/mL [12] | mortality at 500 ppm [3] | mortality at 500 ppm [5] | mortality at 300 ppm [6] | mortality at 300 ppm [11] | mortality at 2500 ppm [7] | mortality at 2500 ppm [8] | mortality at 500 ppm [2] | mortality at 2500 ppm [9]

N#CC(C#N)(Cc1ccc(C(F)(F)F)nn1)c1ccc(F)cc1 [II-14]
≥ 75%: mortality at 2500 µg/mL [12] | mortality at 500 ppm [5] | mortality at 500 ppm [6] | mortality at 2500 ppm [9]

Reference: patent US10117430B2, “Malononitrile compounds for controlling animal pests” (BASF SE, priority 2012, dated 2018)
